This note sets out measurements from patent US20220073496A1, “NOVEL QUINOLINE DERIVATIVE INHIBITOR” (Nanjing Transthera Biosciences Co., Ltd., priority 2018, published 2022).

The structures appear in SMILES notation.

Data set [1] can be described thus: Stability in liver microsome of dogs. Format: in vitro ADME. The settings on record: Dog liver microsome 0.5 mg protein/mL, compound 1 μM, 37° C.; for half-life at 1 μM / microsomal CLint at 1 μM: liver microsomes. How it is done: Assay 1: Stability assessment of the compounds of the present invention in liver microsome of mice and dogs
(§1) Test substances: the compounds of the present invention, wherein the structures and preparations thereof were as described above.
The composition of the incubation system:
Preparation of Test Substances:
An appropriate amount of the compound was accurately weighed and dissolved in DMSO to prepare a 5.0 mM stock solution. The 5.0 mM stock solution was diluted to 1.0 mM with DMSO, and finally diluted with water to a 10 μM test substance working solution for use (the DMSO content in the reaction system was 0.1%).
(1) The liver microsome (20 mg protein/mL) was taken out from the −80° C. refrigerator, pre-incubated at 37° C. with a water-bathing constant temperature vibrator for 3 minutes, and melted for use.
(2) A mixed solution of the incubation system (excluding compounds and β-NADPH) according to the above “composition of the incubation system” for the assay was prepared, and pre-incubated at 37° C. with a water-bathing constant temperature vibrator for 2 minutes.
(3) Control group (excluding β-NADPH): 30 μL of water and 30 μL of compound working solution (10 μM) were added to 240 μL of the mixed solution of the incubation system of step (2), and vortexed for 30 seconds to mix well. The total reaction volume was 300 μL. A duplicate sample was prepared. The sample was incubated at 37° C. with a water-bathing constant temperature vibrator. The timekeeping began and the sampling time points were set at 0 minute and 60 minutes.
(4) Sample group: 70 μL of β-NADPH solution (10 mM) and 70 μL of compound working solution (10 μM) were added to 560 μL of the mixed solution of step (2). The total reaction volume was 700 μL. The resulting mixture was vortexed for 30 seconds to mix well. A duplicate sample was prepared. The sample was incubated at 37° C. with a water-bathing constant temperature vibrator. The timekeeping began and the sampling time points were set at 0 minute, 5 minutes, 10 minutes, 20 minutes, 30 minutes, and 60 minutes after timekeeping.
(5) After vortexing for 3 minutes, the sample was centrifuged at 4000 rpm for 10 minutes.
(6) 50 μL of the supernatant was taken and 150 μL of water was added. The resulting mixture was vortexed to mix well, and analyzed by LC/MS/MS.
The half-life (t1/2) and clearance rate (Cl) were calculated using the following first-order kinetic formula:
Vd=1/protein content in liver microsome
Note: k was the slope of the logarithm of the remaining amount of the compound versus time, and Vd was the apparent distribution volume.

Another data set concerns the target T1, Tyro-3 (h) (Homo sapiens, UniProt Q06418).
T1 construct: purchased
T1 sequence (Q06418 41-890): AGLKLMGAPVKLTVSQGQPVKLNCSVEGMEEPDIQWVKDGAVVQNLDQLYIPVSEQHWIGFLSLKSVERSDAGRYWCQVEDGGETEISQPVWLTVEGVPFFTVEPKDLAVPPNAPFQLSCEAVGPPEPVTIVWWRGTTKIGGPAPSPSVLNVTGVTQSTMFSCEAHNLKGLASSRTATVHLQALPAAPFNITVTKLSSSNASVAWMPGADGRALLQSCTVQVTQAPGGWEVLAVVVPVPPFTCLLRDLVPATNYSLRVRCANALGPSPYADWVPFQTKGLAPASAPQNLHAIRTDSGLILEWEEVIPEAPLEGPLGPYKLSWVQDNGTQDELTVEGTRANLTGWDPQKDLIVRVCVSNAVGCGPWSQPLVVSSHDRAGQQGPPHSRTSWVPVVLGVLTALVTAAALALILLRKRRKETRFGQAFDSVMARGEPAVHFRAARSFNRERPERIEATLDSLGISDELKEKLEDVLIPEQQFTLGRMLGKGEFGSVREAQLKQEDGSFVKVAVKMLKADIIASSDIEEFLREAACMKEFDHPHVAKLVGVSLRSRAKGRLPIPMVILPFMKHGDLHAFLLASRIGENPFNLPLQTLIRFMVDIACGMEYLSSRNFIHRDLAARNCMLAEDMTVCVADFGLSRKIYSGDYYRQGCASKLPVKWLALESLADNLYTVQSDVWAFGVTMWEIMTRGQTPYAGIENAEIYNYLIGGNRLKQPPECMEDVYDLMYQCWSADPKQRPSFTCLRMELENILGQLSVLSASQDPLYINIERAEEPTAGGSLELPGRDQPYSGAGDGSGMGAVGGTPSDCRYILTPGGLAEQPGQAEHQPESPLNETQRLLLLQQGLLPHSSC
The data set can be described thus: Enzymatic activity test, Tyro-3 (h). Format: biochemical. Particulars: 10 μM [γ-33P]-ATP, 40 minutes, room temperature. How it is done: Assay 3: Enzymatic Activity Test of the Compounds of the Present Invention
as §1
(1) Preparation of the Compound Stock Solution
The compound was dissolved in 100% DMSO to prepare a stock solution with a maximum concentration of 500 μM.
(2) Preparation of the Compound Working Solution
The compound stock solution was diluted to final concentrations of 500, 150, 50, 15, 5, 1.5, 0.5, 0.15 and 0.05 μM to become the compound working solutions (50×).
(3) Preparation of Different Enzyme Reaction Solutions
The Tyro3 (h) enzyme was dissolved in 8 mM MOPS (pH 7.0), 0.2 mM EDTA, 1 mM MnCl2, and 250 μM KVEKIGEGTYGVVYK to prepare an enzyme solution having a final concentration of 38 nM. The enzymatic reaction was activated by using 10 mM magnesium acetate and 10 μM [γ-^33P]-ATP to form an Mg/ATP mixed solution.
In a 384-well plate, the compound working solution was added to final concentrations of 10000, 3000, 1000, 300, 100, 30, 10, 3, and 1 nM. Then different enzyme reaction solutions prepared according to the above conditions were added. The incubation was carried out for 40 minutes at room temperature. The test was terminated by the addition of a 0.5% phosphoric acid solution. 10 μL of the reaction solution was taken and dropped to the P30 filter paper. The filter paper was washed 4 times with 0.425% phosphoric acid solution and once with methanol, and then placed on a scintillation counter. The […] IC50 values were calculated using GraphPad 5.0 software.

`COc1cc2nccc(Oc3ncc(NC(=O)c4nn(C(C)C)cc(-c5ccc(F)cc5)c4=O)cn3)c2cc1OC` [Compound 34, N-(2-((6,7-dimethoxyquinolin-4-yl)oxy)pyrimidine-5-yl)-5-para-fluorophenyl-1-isopropyl-4-oxo-1,4-dihydropyridazine-3-carboxamide]: in data set [1], the half-life at 1 μM was 8.25 h and the intrinsic metabolic clearance (microsomal CLint) at 1 μM turned out to be 2.8 µL/min/mg. The midpoint of inhibition on Tyro-3 (h), the IC50, lay at 7 nM.
In the same order, the values of `COc1cc2nccc(Oc3ccc(NC(=O)c4nn(C(C)C)cc(-c5ccc(F)cc5)c4=O)cn3)c2cc1OC` [Compound 29, N-(6-((6,7-dimethoxyquinolin-4-yl)oxy)pyridin-3-yl)-1-isopropyl-4-oxo-5-para-fluorophenyl-1,4-dihydropyridazine-3-carboxamide] are 2.18 h, 10.6 µL/min/mg and 12 nM.
In data set [1], `COc1cc2nccc(Oc3ccc(NC(=O)c4cn(C(C)C)cc(-c5ccc(F)cc5)c4=O)nc3)c2cc1OC` [Compound 14, N-(5-((6,7-dimethoxyquinolin-4-yl)oxy)pyridin-2-yl)-5-(4-fluorophenyl)-1-isopropyl-4-oxo-1,4-dihydropyridin-3-carboxamide] gave a half-life at 1 μM of 2.57 h and a microsomal CLint at 1 μM of 9 µL/min/mg. In addition, the concentration for half-maximal inhibition (IC50) on Tyro-3 (h) was determined as 21 nM.
On to `COc1cc2nccc(Oc3cnc(NC(=O)c4cn(C5CC5)cc(-c5ccc(F)cc5)c4=O)nc3)c2cc1OC` [Compound 32, 1-cyclopropyl-N-(5-((6,7-dimethoxyquinolin-4-yl)oxy)pyrimidine-2-yl)-5-(4-fluorophenyl)-4-oxo-1,4-dihydropyridin-3-carboxamide], for which, in data set [1], the half-life at 1 μM is 3.5 h and the microsomal CLint at 1 μM was 6.6 µL/min/mg. Inhibition at Tyro-3 (h) was half-maximal at 11 nM (IC50).
With `COc1cc2nccc(Oc3ncc(NC(=O)c4cn(C(C)C)nc(-c5ccc(F)cc5)c4=O)cn3)c2cc1OC` [Compound 40, N-(2-((6,7-dimethoxyquinolin-4-yl)oxy)pyrimidine-5-yl)-6-(4-fluorophenyl)-2-isopropyl-5-oxo-2,5-dihydropyridazine-4-carboxamide], in data set [1], the t1/2 result is on record as “→∞”. This compound returned an IC50 against Tyro-3 (h) of 143 nM.
